Earlier results as cited in US20260335284A1, “STABLE MITOMYCIN CONCENTRATES” (STEPS BIOSCIENCES, INC., priority 2022, published 2026).

Conditions: EP 0415430A1

CO[C@@]12[C@H](COC(N)=O)C3=C(C(=O)C(C)=C(N)C3=O)N1C[C@@H]1N[C@@H]12 [MMC, Mitomycin C]
Stability in water and in PEG (in water and also in PEG): very unstable
Stability in PG with finite percentage of water (5%) (solutions at 5 mg/mL): most stable
